Experimental data reported in ChEMBL document CHEMBL1141361, “Niphatoxin C, a cytotoxic tripyridine alkaloid from Callyspongia sp” (J Nat Prod, 2007).

Columns and labels:
[1] = target: T1, P2X purinoceptor 7 (Homo sapiens) (UniProt Q99572); experiment: Antagonist activity at P2X7 receptor expressed in human THP1 cells assessed as reduction of benzoylbenzoyl adenosine triphosphate-induced pore formation at 10 uM relative to control; type: functional, cell-based; set-up: scale not given: the % may be the effect or the level left; conditions: THP-1
T1 sequence (whole entry): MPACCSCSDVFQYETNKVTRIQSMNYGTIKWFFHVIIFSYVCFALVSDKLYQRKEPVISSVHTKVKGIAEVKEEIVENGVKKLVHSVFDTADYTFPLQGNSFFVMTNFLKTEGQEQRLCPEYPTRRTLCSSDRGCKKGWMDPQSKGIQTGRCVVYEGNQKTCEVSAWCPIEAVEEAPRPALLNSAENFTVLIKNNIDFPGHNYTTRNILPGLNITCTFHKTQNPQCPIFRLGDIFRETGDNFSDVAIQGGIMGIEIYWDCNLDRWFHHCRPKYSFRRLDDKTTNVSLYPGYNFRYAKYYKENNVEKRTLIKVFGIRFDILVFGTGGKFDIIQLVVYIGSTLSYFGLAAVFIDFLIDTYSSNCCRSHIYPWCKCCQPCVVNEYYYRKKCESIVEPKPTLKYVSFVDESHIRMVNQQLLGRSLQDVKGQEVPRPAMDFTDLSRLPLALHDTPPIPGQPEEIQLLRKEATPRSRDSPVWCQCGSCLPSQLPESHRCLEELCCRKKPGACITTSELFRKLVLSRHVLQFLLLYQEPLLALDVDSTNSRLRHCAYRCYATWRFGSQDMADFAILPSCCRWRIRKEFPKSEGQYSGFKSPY

THP-1 [2] = experiment: Cytotoxicity against human THP1 cells at 30 uM; type: functional
THP-1 [3] = experiment: Cytotoxicity against human THP1 cells at 100 uM; type: functional
THP-1 [4] = experiment: Cytotoxicity against human THP1 cells after 21 hrs; type: functional, cell-based; conditions: THP-1, 21 h
THP-1 [5] = experiment: Increase in hemolysin-induced pore formation in human THP1 cells at 10 uM relative to control; type: functional
THP-1 [6] = experiment: Increase in hemolysin-induced pore formation in human THP1 cells at 100 uM relative to control; type: functional

## C(=C/CCCC[n+]1cccc(C/C=C\CCCCCCc2cccnc2)c1)/CCCCCCc1cccnc1 [NIPHATOXIN C]
[1]
  Activity: 41%
THP-1 [2]
  Activity: 0%
THP-1 [3]
  Activity: 99%
THP-1 [4]
  IC50: 11.5 µM
THP-1 [5]
  Activity: 101%
THP-1 [6]
  Activity: 185%
